Reference: patent US10722514B2 (FLX Bio, Inc., priority 2017, dated 2020)
pIC50: −log10 of the molar value. Where a name gives a salt, the structure may show the parent alone.

These compounds were tested against T1, recombinant full-length USP7 (Homo sapiens, UniProt Q93009) (assay: USP7-mediated ubiquitin-rhodamine cleavage assay). Conditions: recombinant full-length USP7 62 pM; ubiquitin-rhodamine 100 nM; 30-minute incubation with compound, 1 hour reaction at room temperature; read-out: Potency: USP7 IC50.
T1 construct: A 25 μl reaction volume containing recombinant full-length USP7 (62 pM)
T1 sequence (Q93009 whole entry): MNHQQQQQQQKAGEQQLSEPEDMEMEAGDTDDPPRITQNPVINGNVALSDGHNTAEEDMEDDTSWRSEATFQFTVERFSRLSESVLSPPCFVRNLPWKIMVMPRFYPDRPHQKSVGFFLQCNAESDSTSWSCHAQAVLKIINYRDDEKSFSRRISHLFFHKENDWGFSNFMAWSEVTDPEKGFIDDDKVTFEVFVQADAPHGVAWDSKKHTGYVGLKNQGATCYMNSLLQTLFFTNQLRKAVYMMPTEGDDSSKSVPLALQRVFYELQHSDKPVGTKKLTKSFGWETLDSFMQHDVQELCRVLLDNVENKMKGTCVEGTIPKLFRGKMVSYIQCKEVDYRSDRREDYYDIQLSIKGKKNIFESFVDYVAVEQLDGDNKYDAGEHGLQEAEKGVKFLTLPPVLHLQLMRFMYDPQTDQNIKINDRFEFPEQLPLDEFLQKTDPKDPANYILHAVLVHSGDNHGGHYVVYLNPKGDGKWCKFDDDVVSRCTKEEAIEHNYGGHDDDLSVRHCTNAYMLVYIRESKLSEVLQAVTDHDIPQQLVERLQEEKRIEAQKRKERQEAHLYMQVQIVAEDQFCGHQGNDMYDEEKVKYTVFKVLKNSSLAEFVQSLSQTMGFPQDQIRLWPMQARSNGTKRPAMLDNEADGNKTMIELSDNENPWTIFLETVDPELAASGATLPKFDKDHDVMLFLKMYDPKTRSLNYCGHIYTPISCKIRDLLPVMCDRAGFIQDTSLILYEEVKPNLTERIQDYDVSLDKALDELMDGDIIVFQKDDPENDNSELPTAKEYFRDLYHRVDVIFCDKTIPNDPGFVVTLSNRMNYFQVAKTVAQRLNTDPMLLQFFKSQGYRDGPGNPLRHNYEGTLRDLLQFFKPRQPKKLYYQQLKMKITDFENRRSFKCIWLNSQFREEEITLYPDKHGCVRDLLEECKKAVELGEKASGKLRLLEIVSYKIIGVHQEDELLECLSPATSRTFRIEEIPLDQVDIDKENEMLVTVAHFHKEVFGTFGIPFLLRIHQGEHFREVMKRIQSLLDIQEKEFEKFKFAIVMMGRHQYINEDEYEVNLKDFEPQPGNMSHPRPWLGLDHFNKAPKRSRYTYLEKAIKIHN
Format: biochemical
In short: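 After compound and enzyme (62 pM) sat together 30 min at RT, 100 nM fluorogenic ubiquitin-rhodamine substrate was added for 1 h protected from light. Acetic acid quenched the reaction prior to the fluorescence read.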

SMILES | pIC50
Cc1cc(Cl)cc(-c2ccnc3cc(Cn4c(=O)ccn(C)c4=O)sc23)c1O[C@H]1CCCNCC1 [Example 8, (S)-3-((7-(2-(Azepan-4-yloxy)-5-chloro-3-methylphenyl)thieno[3,2-b]pyridin-2-yl)methyl)-1-methylpyrimidine-2,4(1H,3H)-dione] | > 6.00
Cc1cc(Cl)cc(-c2ccnc3cc(CO)sc23)c1O[C@@H]1CCC[C@H]1N [Example 75, (7-(2-(((1R,2R)-2-Aminocyclopentyl)oxy)-5-chloro-3-methylphenyl)thieno[3,2-b]pyridin-2-yl)methanol] | 4.52 to 5.00
CCC(O)c1cc2nccc(-c3cc(Cl)cc(C)c3OC3CCNC3=O)c2s1 (centres unmarked) [Example 87, 3-(4-Chloro-2-(2-(1-hydroxypropyl)thieno[3,2-b]pyridin-7-yl)-6-methylphenoxy)pyrrolidin-2-one] | 4.52 to 5.00
CCC(O)c1cc2nccc(-c3cc(C#N)cc(C)c3OCC3(F)CNC3)c2s1 (centres unmarked) [Example 36, 4-((3-Fluoroazetidin-3-yl)methoxy)-3-(2-(1-hydroxypropyl)thieno[3,2-b]pyridin-7-yl)-5-methylbenzonitrile] | 5.00 to 6.00

Results, then the compound that gave them:

pIC50 | SMILES
> 6.00 | Cc1cc(Cl)cc(-c2ccnc3cc(CN4C(=O)CCC4=O)sc23)c1O[C@@H]1CN(C2CCC2)C[C@@H]1F [Example 322, 1-[[7-[5-chloro-2-[(3R,4S)-1-cyclobutyl-4-fluoro-pyrrolidin-3-yl]oxy-3-methyl-phenyl]thieno[3,2-b]pyridin-2-yl]methyl]pyrrolidine-2,5-dione]
> 6.00 | Cc1cc(Cl)cc(-c2ccnc3cc(CN4C(=O)C5CC5C4=O)sc23)c1O[C@@H]1CNC[C@@H]1F (stereo partly drawn) [Example 300, 3-[[7-[5-chloro-2-[(3R,4S)-4-fluoropyrrolidin-3-yl]oxy-3-methyl-phenyl]thieno[3,2-b]pyridin-2-yl]methyl]-3-azabicyclo[3.1.0]hexane-2,4-dione]
> 6.00 | Cc1cc(Cl)cc(-c2ccnc3cc(CN4C(=O)CCC4=O)sc23)c1O[C@H]1CCNC[C@@H]1F [Example 208, 1-((7-(5-Chloro-2-(((3S,4S)-3-fluoropiperidin-4-yl)oxy)-3-methylphenyl)thieno[3,2-b]pyridin-2-yl)methyl)pyrrolidine-2,5-dione]
> 6.00 | Cc1cc(Cl)cc(-c2ccnc3cc(CN4C(=O)CCC4=O)sc23)c1OC1CCN(C)CC1 [Example 216, 1-((7-(5-Chloro-3-methyl-2-((I-methylpiperidin-4-yl)oxy)phenyl)thieno[3,2-b]pyridin-2-yl)methyl)pyrrolidine-2,5-dione]
> 6.00 | Cc1cc(Cl)cc(-c2ccnc3cc(CN4C(=O)CCC4=O)sc23)c1O[C@H]1[C@@H]2CNC[C@H]1C2 [Example 206, 1-((7-(2-(((1R,5S,6s)-3-Azabicyclo[3.1.1]heptan-6-yl)oxy)-5-chloro-3-methylphenyl)thieno[3,2-b]pyridin-2-yl)methyl)pyrrolidine-2,5-dione]
> 6.00 | Cc1cc(Cl)cc(-c2ccnc3cc(Cn4c(=O)ccn(CC(F)(F)F)c4=O)sc23)c1O[C@H]1CCC(C)(C)NC1 [Example 286, 3-[[7-[5-chloro-2-[[(3S)-6,6-dimethyl-3-piperidyl]oxy]-3-methyl-phenyl]thieno[3,2-b]pyridin-2-yl]methyl]-1-(2,2,2-trifluoroethyl)pyrimidine-2,4-dione; 2,2,2-trifluoroacetic acid]
> 6.00 | Cc1cc(Cl)cc(-c2ccnc3cc(Cn4c(=O)ccn(CC(F)(F)F)c4=O)sc23)c1O[C@@H]1CCNC[C@H]1C [Example 275, 3-((7-(5-Chloro-3-methyl-2-(((3R,4R)-3-methylpiperidin-4-yl)oxy)phenyl)thieno[3,2-b]pyridin-2-yl)methyl)-1-(2,2,2-trifluoroethyl)pyrimidine-2,4(1H,3H)-dione]
> 6.00 | Cc1cc(Cl)cc(-c2ccnc3cc(CN4C(=O)CSC4=O)sc23)c1O[C@H]1CCCNC1 [Example 249, (S)-3-((7-(5-Chloro-3-methyl-2-(piperidin-3-yloxy)phenyl)thieno[3,2-b]pyridin-2-yl)methyl)thiazolidine-2,4-dione]

Same assay, conditions: recombinant full-length USP7 62 pM; ubiquitin-rhodamine 100 nM; 30-minute incubation, 1 hour reaction at room temperature; read-out: Potency (USP7 IC50)

SMILES | pIC50
CCN1CC[C@@H](Oc2c(C)cc(Cl)cc2-c2ccnc3cc(Cn4c(=O)ccn(CC(F)(F)F)c4=O)sc23)[C@@H](C)C1 [Example 690, 3-[[7-[5-chloro-2-[[(3S,4R)-1-ethyl-3-methyl-4-piperidyl]oxy]-3-methyl-phenyl]thieno[3,2-b]pyridin-2-yl]methyl]-1-(2,2,2-trifluoroethyl)pyrimidine-2,4-dione] | > 6.00
Cc1cc(Cl)cc(-c2ccnc3cc(Cn4c(=O)ccn(CC(F)(F)F)c4=O)sc23)c1OC1CC(N2C[C@@H]3C[C@H]2CO3)C1 (stereo partly drawn) [Example 675, 3-[[7-[5-chloro-3-methyl-2-[3-[(1S,4S)-2-oxa-5-azabicyclo[2.2.1]heptan-5-yl]cyclobutoxy]phenyl]thieno[3,2-b]pyridin-2-yl]methyl]-1-(2,2,2-trifluoroethyl)pyrimidine-2,4-dione] | > 6.00

Same assay, conditions: recombinant full-length USP7 62 pM; ubiquitin-rhodamine 100 nM; 30-minute pre-incubation, 1 hour reaction at room temperature; read-out: Potency (USP7 IC50)

SMILES | pIC50
Cc1cc(Cl)cc(-c2ccnc3cc(CN4C(=O)CCC4=O)sc23)c1OC1CC(C)(N)C1 (centres unmarked) [Example 443, 1-[[7-[2-(3-amino-3-methyl-cyclobutoxy)-5-chloro-3-methyl-phenyl]thieno[3,2-b]]pyridin-2-yl]methyl]pyrrolidine-2,5-dione dihydrochloride] | > 6.00
Cc1cc(Cl)cc(-c2ccncc2CCCN2C(=O)CCC2=O)c1OC1CNC[C@@H]1F (stereo partly drawn) [Example 409, 1-[3-[4-[5-chloro-2-[(4S)-4-fluoropyrrolidin-3-yl]oxy-3-methyl-phenyl]-3-pyridyl]propyl]pyrrolidine-2,5-dione; 2,2,2-trifluoroacetic acid] | 5.00 to 6.00
Cc1cc(Cl)cc(-c2ccnc3cc(Cn4c(=O)ccn(CC(F)(F)F)c4=O)sc23)c1O[C@@H]1CCCN[C@@H]1C [Example 621, 3-[[7-[5-chloro-3-methyl-2-[[(2R,3R)-2-methyl-3-piperidyl]oxy]phenyl]thieno[3,2-b]pyridin-2-yl]methyl]-1-(2,2,2-trifluoroethyl)pyrimidine-2,4-dione; 2,2,2-trifluoroacetic acid] | > 6.00
Cc1cc(Cl)cc(-c2ccnc3cc(Cn4c(=O)ccn(C)c4=O)sc23)c1O[C@H]1CN[C@@H](C(=O)O)C1 [Example 601, (2R,4R)-4-[4-chloro-2-methyl-6-[2-[(3-methyl-2,6-dioxo-pyrimidin-1-yl)methyl]thieno[3,2-b]pyridin-7-yl]phenoxy]pyrrolidine-2-carboxylic acid] | 5.00 to 6.00
Cc1cc(C(F)(F)F)cc(-c2ccnc3cc(Cn4c(=O)ccn(C)c4=O)sc23)c1O[C@@H]1CC[C@@H](N)C1 [Example 456, 3-[[7-[2-[(1R,3R)-3-aminocyclopentoxy]-3-methyl-5-(trifluoromethyl)phenyl]thieno[3,2-b]pyridin-2-yl]methyl]-1-methyl-pyrimidine-2,4-dione dihydrochloride] | > 6.00
Cc1cc(Cl)cc(-c2ccnc3cc(Cn4c(=O)ccn(C)c4=O)sc23)c1O[C@@H]1CNCC(C)(C)C1 [Example 536, 3-[[7-[5-chloro-2-[[(3S)-5-dimethyl-3-piperidyl]oxy]-3-methyl-phenyl]thieno[3,2-b]pyridin-2-yl]methyl]-1-methyl-pyrimidine-2,4-dione; 2,2,2-trifluoroacetic acid] | > 6.00
